Consider 33 compounds from US7704995B2 (Exelixis, Inc., priority 2003, dated 2010).

The target in this test is T1, Chk1 (Homo sapiens, UniProt O14757).
T1 construct: purchased Upstate Biotechnology
T1 sequence (O14757 1-476): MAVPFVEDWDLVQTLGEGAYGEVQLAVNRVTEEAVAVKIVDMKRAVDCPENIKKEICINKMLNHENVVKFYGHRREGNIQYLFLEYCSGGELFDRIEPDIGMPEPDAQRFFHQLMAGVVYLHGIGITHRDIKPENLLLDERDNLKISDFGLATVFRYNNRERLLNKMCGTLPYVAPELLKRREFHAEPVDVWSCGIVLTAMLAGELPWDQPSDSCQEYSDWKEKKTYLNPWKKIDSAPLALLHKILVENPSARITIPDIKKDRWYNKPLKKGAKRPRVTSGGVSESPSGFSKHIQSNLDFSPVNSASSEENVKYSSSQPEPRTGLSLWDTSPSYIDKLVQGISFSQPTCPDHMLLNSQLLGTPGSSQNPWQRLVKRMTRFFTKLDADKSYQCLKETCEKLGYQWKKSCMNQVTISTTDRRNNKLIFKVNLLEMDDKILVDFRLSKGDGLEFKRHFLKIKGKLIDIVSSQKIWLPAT
Kind of test: Chk1 kinase assay: incorporation of γ-33P ATP into immobilized myelin basic protein. In kind it is biochemical. The following applies: read-out: Chk1 IC50. The method, boiled down:
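Chk1 (10 nM) or Chk2 (20 nM) phosphorylated plate-immobilized myelin basic protein for 1 h at room temperature in Hepes pH 7.6 buffer with MgCl2, DTT, 1% DMSO, γ-33P ATP plus 10 μM (Chk1) or 30 μM (Chk2) unlabeled ATP. Bound radioactivity counted by scintillation; IC50 determined, Ki derivable from IC50.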

In general, IC50 refers to the concentration that inhibits the measured activity by half. For `CNC(=O)c1nc(-c2cccc(OCCN3CCOCC3)c2)cnc1N` [Example 185, 3-amino-N-methyl-6-{3-[(2-morpholin-4-ylethyl)oxy]phenyl}pyrazine-2-carboxamide], the half-maximal inhibitory concentration (IC50) was in the range of 1000 to 10000 nM. For `CCCN(CCOc1cccc(-c2cnc(N)c(C(=O)NC)n2)c1)CC1CC1` [Example 186, 3-amino-6-[3-({2-[(cyclopropylmethyl)(propyl)amino]ethyl}oxy)phenyl]-N-methylpyrazine-2-carboxamide], the IC50 fell in the range of 50 to 1000 nM. `CNC(=O)c1nc(-c2cccc(OCCN3CCC(Cc4ccccc4)CC3)c2)cnc1N` [Example 187, 3-amino-N-methyl-6-[3-({2-[4-(phenylmethyl)piperidin-1-yl]ethyl}oxy)phenyl]pyrazine-2-carboxamide]: the IC50 is 50 to 1000 nM. Next, `CNC(=O)c1nc(-c2cccc(OCCN3CCCCC3)c2)cnc1N` [Example 188, 3-amino-N-methyl-6-{3-[(2-piperidin-1-ylethyl)oxy]phenyl}pyrazine-2-carboxamide]: 50 to 1000 nM; `CNC(=O)c1nc(-c2cccc(C(=O)NCc3cccc(Oc4ccccc4)c3)c2)cnc1N` [Example 189, 3-amino-N-methyl-6-{3-[({[3-(phenyloxy)phenyl]methyl}amino)carbonyl]phenyl}pyrazine-2-carboxamide]: 50 to 1000 nM; `CCN1CCN(CCOc2cccc(-c3cnc(N)c(C(=O)NC)n3)c2)CC1` [Example 190, 3-amino-6-(3-{[2-(4-ethylpiperazin-1-yl)ethyl]oxy}phenyl)-N-methylpyrazine-2-carboxamide]: 50 to 1000 nM.

Consider `CNC(=O)c1nc(-c2cccc(OCCN3CCCC3)c2)cnc1N` [Example 191, 3-amino-N-methyl-6-{3-[(2-pyrrolidin-1-ylethyl)oxy]phenyl}pyrazine-2-carboxamide], for which the IC50 fell in the range of 50 to 1000 nM. For `CNC(=O)c1nc(-c2cccc(OCCN3CCN(C)CC3)c2)cnc1N` [Example 192, 3-amino-N-methyl-6-(3-{[2-(4-methylpiperazin-1-yl)ethyl]oxy}phenyl)pyrazine-2-carboxamide] the value was 50 to 1000 nM.

As to `CNC(=O)c1nc(-c2cccc(OCCN3CCN(CCO)CC3)c2)cnc1N` [Example 193, 3-amino-6-[3-({2-[4-(2-hydroxyethyl)piperazin-1-yl]ethyl}oxy)phenyl]-N-methylpyrazine-2-carboxamide], the IC50 lay within 50 to 1000 nM. For `CNC(=O)c1nc(-c2cccc(OCCN3CCc4ccccc4C3)c2)cnc1N` [Example 194, 3-amino-6-(3-{[2-(3,4-dihydroisoquinolin-2(1H)-yl)ethyl]oxy}phenyl)-N-methylpyrazine-2-carboxamide], the IC50 lay within 50 to 1000 nM. With `CCOC(=O)N1CCN(CCOc2cccc(-c3cnc(N)c(C(=O)NC)n3)c2)CC1` [Example 195, ethyl 4-{2-[(3-{5-amino-6-[(methylamino)carbonyl]pyrazin-2-yl}phenyl)oxy]ethyl}piperazine-1-carboxylate], the IC50 lay in the range of 1000 to 10000 nM.

Take `CNC(=O)c1nc(-c2cccc(C(=O)N[C@H]3CCN(Cc4ccccc4)C3)c2)cnc1N` [Example 196, 3-amino-N-methyl-6-[3-({[(3S)-1-(phenylmethyl)pyrrolidin-3-yl]amino}carbonyl)phenyl]pyrazine-2-carboxamide]: the 50% inhibitory concentration (IC50) fell in the range of 50 to 1000 nM. With `CNC(=O)c1nc(-c2cccc(C(=O)N[C@@H]3CCN(Cc4ccccc4)C3)c2)cnc1N` [Example 197, 3-amino-N-methyl-6-[3-({[(3R)-1-(phenylmethyl)pyrrolidin-3-yl]amino}carbonyl)phenyl]pyrazine-2-carboxamide], the half-maximal inhibitory concentration (IC50) was 50 to 1000 nM. Next, `CNC(=O)c1nc(-c2cccc(C(=O)NCCOc3ccccc3)c2)cnc1N` [Example 198, 3-amino-N-methyl-6-[3-({[2-(phenyloxy)ethyl]amino}carbonyl)phenyl]pyrazine-2-carboxamide]: 50 to 1000 nM; `CNC(=O)c1nc(-c2cccc(C(=O)NCCN3CCN(Cc4ccccc4)CC3)c2)cnc1N` [Example 199, 3-amino-N-methyl-6-{3-[({2-[4-(phenylmethyl)piperazin-1-yl]ethyl}amino)carbonyl]phenyl}pyrazine-2-carboxamide]: 50 to 1000 nM; `CNC(=O)c1nc(-c2cccc(C(=O)NCC3CCN(Cc4ccccc4)CC3)c2)cnc1N` [Example 200, 3-amino-N-methyl-6-{3-[({[1-(phenylmethyl)piperidin-4-yl]methyl}amino)carbonyl]phenyl}pyrazine-2-carboxamide]: no less than 10000 nM.

Consider `CNC(=O)c1nc(-c2cccc(C(=O)NCc3ccoc3)c2)cnc1N` [Example 201, 3-amino-6-(3-{[(furan-3-ylmethyl)amino]carbonyl}phenyl)-N-methylpyrazine-2-carboxamide], for which the 50% inhibitory concentration (IC50) was in the range of 50 to 1000 nM.

In the case of `CNC(=O)c1nc(-c2cccc(C(=O)NCC3COc4ccccc4O3)c2)cnc1N` (stereo not drawn) [Example 202, 3-amino-6-(3-{[(2,3-dihydro-1,4-benzodioxin-2-ylmethyl)amino]carbonyl}phenyl)-N-methylpyrazine-2-carboxamide], the IC50 was 50 to 1000 nM. For `CNC(=O)c1nc(-c2cccc(C(=O)NCc3ccco3)c2)cnc1N` [Example 203, 3-amino-6-(3-{[(furan-2-ylmethyl)amino]carbonyl}phenyl)-N-methylpyrazine-2-carboxamide] the value was 50 to 1000 nM. Next, `CNC(=O)c1nc(-c2cccc(C(=O)NCC3CN(Cc4ccccc4)CCO3)c2)cnc1N` (stereo not drawn) [Example 204, 3-amino-N-methyl-6-{3-[({[4-(phenylmethyl)morpholin-2-yl]methyl}amino)carbonyl]phenyl}pyrazine-2-carboxamide]: 50 to 1000 nM; `CNC(=O)c1nc(-c2cccc(C(=O)NCc3ccc4c(c3)OCCO4)c2)cnc1N` [Example 205, 3-amino-6-(3-{[(2,3-dihydro-1,4-benzodioxin-6-ylmethyl)amino]carbonyl}phenyl)-N-methylpyrazine-2-carboxamide]: less than 50 nM; `CNC(=O)c1nc(-c2cccc(C(=O)NCc3ccc4c(c3)CCO4)c2)cnc1N` [Example 207, 3-amino-6-(3-{[(2,3-dihydro-1-benzofuran-5-ylmethyl)amino]carbonyl}phenyl)-N-methylpyrazine-2-carboxamide]: 50 to 1000 nM. As to `CNC(=O)c1nc(-c2cccc(C(=O)NCc3cc(F)cc4c3OCOC4)c2)cnc1N` [Example 208, 3-amino-6-[3-({[(6-fluoro-4H-1,3-benzodioxin-8-yl)methyl]amino}carbonyl)phenyl]-N-methylpyrazine-2-carboxamide], the IC50 lay within 50 to 1000 nM.

In the case of `CNC(=O)c1nc(-c2cccc(NC(=O)Cc3ccc(Cl)cc3Cl)c2)cnc1N` [Example 209, 3-amino-6-(3-{[(2,4-dichlorophenyl)acetyl]amino}phenyl)-N-methylpyrazine-2-carboxamide], the IC50 was less than 50 nM. For `CNC(=O)c1nc(-c2cccc(NC(=O)Cc3ccc(Cl)c(Cl)c3)c2)cnc1N` [Example 210, 3-amino-6-(3-{[(3,4-dichlorophenyl)acetyl]amino}phenyl)-N-methylpyrazine-2-carboxamide] the value was 50 to 1000 nM. As for `CNC(=O)c1nc(-c2cccc(NC(=O)Cc3ccc(C(F)(F)F)cc3)c2)cnc1N` [Example 211, 3-amino-N-methyl-6-[3-({[4-(trifluoromethyl)phenyl]acetyl}amino)phenyl]pyrazine-2-carboxamide], the IC50 fell in the range of 50 to 1000 nM. Regarding `CNC(=O)c1nc(-c2cccc(C(=O)NCc3cc(C)cc(C)c3)c2)cnc1N` [Example 212, 3-amino-6-[3-({[(3,5-dimethylphenyl)methyl]amino}carbonyl)phenyl]-N-methylpyrazine-2-carboxamide], the IC50 lay in the range of 50 to 1000 nM. Next, `CNC(=O)c1nc(-c2cccc(C(=O)NCc3cc(Cl)ccc3C)c2)cnc1N` [Example 213, 3-amino-6-[3-({[(5-chloro-2-methylphenyl)methyl]amino}carbonyl)phenyl]-N-methylpyrazine-2-carboxamide]: 50 to 1000 nM; `CNC(=O)c1nc(-c2cccc(C(=O)NCc3ccc(C)cc3C)c2)cnc1N` [Example 214, 3-amino-6-[3-({[(2,4-dimethylphenyl)methyl]amino}carbonyl)phenyl]-N-methylpyrazine-2-carboxamide]: 50 to 1000 nM. Regarding `CNC(=O)c1nc(-c2cccc(C(=O)NCc3cccc(F)c3F)c2)cnc1N` [Example 215, 3-amino-6-[3-({[(2,3-difluorophenyl)methyl]amino}carbonyl)phenyl]-N-methylpyrazine-2-carboxamide], the IC50 is 1000 to 10000 nM. Next, `CNC(=O)c1nc(-c2cccc(C(=O)NCc3ccc(SC)cc3)c2)cnc1N` [Example 216, 3-amino-N-methyl-6-{3-[({[4-(methylthio)phenyl]methyl}amino)carbonyl]phenyl}pyrazine-2-carboxamide]: less than 50 nM; `CNC(=O)c1nc(-c2cccc(C(=O)NCC(C)C)c2)cnc1N` [Example 217, 3-amino-N-methyl-6-(3-{[(2-methylpropyl)amino]carbonyl}phenyl)pyrazine-2-carboxamide]: 1000 to 10000 nM; `CNC(=O)c1nc(-c2cccc(C(=O)NCc3cccc(OC(F)(F)F)c3)c2)cnc1N` [Example 218, 3-amino-N-methyl-6-(3-{[({3-[(trifluoromethyl)oxy]phenyl}methyl)amino]carbonyl}phenyl)pyrazine-2-carboxamide]: 1000 to 10000 nM.
